Measurements from PubChem BioAssay AID330 (DTP/NCI, 2004).
Where “and” joins values, the source holds several entries; their conditions need not be identical. Equal entries are not always repeated. Inconclusive results and toxic doses are left out. The calls were made as follows: active = survival T/C of 150% or more; inactive = T/C below 125% in these data.

Tested on: P388 leukemia ip, CD2F1 mice, survival T/C
Test: NCI In Vivo Anticancer Drug Screen. Data for tumor model P388 Leukemia (intraperitoneal) in CD2F1 (CDF1) mice
Details: endpoint: median survival time, higher = longer survival
Method in brief: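 Mice carrying the transplanted tumor received test compound or vehicle. Survival was recorded in each group, and the value is the treated-group measurement divided by that of the vehicle-treated control group.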

[1] = dose: 50.0 mg/kg/injection, schedule: Q01DX005 (ip), vehicle: Klucel (hydroxypropylcellulose) (HPC)
[2] = dose: 100.0 mg/kg/injection, schedule: Q01DX005 (ip), vehicle: Klucel (hydroxypropylcellulose) (HPC)
[3] = dose: 50.0 mg/kg/injection, schedule: Q01DX009 (ip), vehicle: saline with Tween-80
[4] = dose: 200.0 mg/kg/injection, schedule: Q01DX005 (ip), vehicle: Klucel (hydroxypropylcellulose) (HPC)
[5] = dose: 50.0 mg/kg/injection, schedule: Q01DX005 (ip), vehicle: saline with Tween-80
[6] = dose: 100.0 mg/kg/injection, schedule: Q01DX005 (ip), vehicle: saline with Tween-80
[7] = dose: 200.0 mg/kg/injection, schedule: Q01DX005 (ip), vehicle: saline with Tween-80
[8] = dose: 60.0 mg/kg/injection, schedule: Q01DX005 (ip), vehicle: saline with Tween-80
[9] = dose: 120.0 mg/kg/injection, schedule: Q01DX005 (ip), vehicle: saline with Tween-80
[10] = dose: 50.0 mg/kg/injection, schedule: Q01DX009 (ip), vehicle: Klucel (hydroxypropylcellulose) (HPC)
[11] = dose: 100.0 mg/kg/injection, schedule: Q01DX009 (ip), vehicle: Klucel (hydroxypropylcellulose) (HPC)
[12] = dose: 200.0 mg/kg/injection, schedule: Q01DX009 (ip), vehicle: Klucel (hydroxypropylcellulose) (HPC)
[13] = dose: 60.0 mg/kg/injection, schedule: Q01DX005 (ip), vehicle: Klucel (hydroxypropylcellulose) (HPC)
[14] = dose: 120.0 mg/kg/injection, schedule: Q01DX005 (ip), vehicle: Klucel (hydroxypropylcellulose) (HPC)

Measured: T/C

CCCCCC[CH2][Sn]([Cl])([CH2]C)[O][Sn]([Cl])([CH2]C)[CH2]CCCCCC (centres undefined)
inactive: dose: 12.5 mg/kg/injection, schedule: Q01DX005 (ip), vehicle: saline 86 % of control | dose: 25.0 mg/kg/injection, schedule: Q01DX005 (ip), vehicle: saline 86 % of control | dose: 50.0 mg/kg/injection, schedule: Q01DX005 (ip), vehicle: saline 98 % of control and 90 % of control | dose: 100.0 mg/kg/injection, schedule: Q01DX005 (ip), vehicle: saline 110 % of control | dose: 200.0 mg/kg/injection, schedule: Q01DX005 (ip), vehicle: saline 98 % of control

c1ccc(CCn2c(-c3ccccn3)nc3ccccc32)nc1
inactive: dose: 25.0 mg/kg/injection, schedule: Q01DX005 (ip), vehicle: Klucel (hydroxypropylcellulose) (HPC) 105 % of control | [1] 99 % of control | [2] 99 % of control

COC(=O)c1[nH]c(=O)c2ccc([N+](=O)[O-])cc2c1O
inactive: [3] 86 % of control | dose: 100.0 mg/kg/injection, schedule: Q01DX009 (ip), vehicle: saline with Tween-80 88 % of control | dose: 200.0 mg/kg/injection, schedule: Q01DX009 (ip), vehicle: saline with Tween-80 86 % of control

c1ccc2c(c1)NCCOCCNc1ccccc1OCCNCCO2
inactive: dose: 25.0 mg/kg/injection, schedule: Q01DX001 (ip), vehicle: saline with Tween-80 100 % of control | dose: 50.0 mg/kg/injection, schedule: Q01DX001 (ip), vehicle: saline with Tween-80 96 % of control | dose: 100.0 mg/kg/injection, schedule: Q01DX001 (ip), vehicle: saline with Tween-80 89 % of control and 92 % of control

O=C(c1ccccc1)N1C=CC(=Cc2ccccc2)C=C1
inactive: dose: 1.56 mg/kg/injection, schedule: Q01DX009 (ip), vehicle: Klucel (hydroxypropylcellulose) (HPC) 102 % of control | dose: 3.12 mg/kg/injection, schedule: Q01DX009 (ip), vehicle: Klucel (hydroxypropylcellulose) (HPC) 106 % of control | dose: 6.25 mg/kg/injection, schedule: Q01DX009 (ip), vehicle: Klucel (hydroxypropylcellulose) (HPC) 101 % of control and 96 % of control

CCOC(=O)C1=C(C)NC(=O)NC1c1cccc(OC)c1O (centres undefined)
inactive: [1] 94 % of control | [2] 91 % of control | [4] 97 % of control

CC1OC(OC2C(CO)OC(O[C@H]3CC[C@@]4(C)C(=CC[C@H]5[C@@H]6C[C@@H]7O[C@]8(CC[C@@H](C)CN8)[C@@H](C)[C@@H]7[C@@]6(C)CC[C@@H]54)C3)C(O)C2O)C(O)C(O)C1O (some centres undefined)
inactive: dose: 12.5 mg/kg/injection, schedule: Q01DX005 (ip), vehicle: acid diluted with saline 101 % of control | dose: 25.0 mg/kg/injection, schedule: Q01DX005 (ip), vehicle: acid diluted with saline 105 % of control | dose: 50.0 mg/kg/injection, schedule: Q01DX005 (ip), vehicle: acid diluted with saline 105 % of control and 87 % of control | dose: 100.0 mg/kg/injection, schedule: Q01DX005 (ip), vehicle: acid diluted with saline 105 % of control

O=C(CCc1ccccc1)c1c(O)c(Cc2ccccc2O)c2c(c1O)Cc1ccccc1O2
inactive: dose: 1.5 mg/kg/injection, schedule: Q01DX009 (ip), vehicle: Klucel (hydroxypropylcellulose) (HPC) 100 % of control | dose: 3.0 mg/kg/injection, schedule: Q01DX009 (ip), vehicle: Klucel (hydroxypropylcellulose) (HPC) 98 % of control | dose: 6.0 mg/kg/injection, schedule: Q01DX009 (ip), vehicle: Klucel (hydroxypropylcellulose) (HPC) 98 % of control | dose: 12.0 mg/kg/injection, schedule: Q01DX009 (ip), vehicle: Klucel (hydroxypropylcellulose) (HPC) 98 % of control

CCCCCCCCCC[N+](C)(C)CCO
inactive: dose: 12.5 mg/kg/injection, schedule: Q01DX009 (ip), vehicle: saline 118 % of control | dose: 25.0 mg/kg/injection, schedule: Q01DX009 (ip), vehicle: saline 109 % of control | dose: 50.0 mg/kg/injection, schedule: Q01DX009 (ip), vehicle: saline 116 % of control

S=P(Oc1cc(Cl)c(Cl)cc1Cl)(N1CCN(c2cccc(Cl)c2)CC1)N1CCN(c2cccc(Cl)c2)CC1
inactive: [5] 97 % of control | [6] 88 % of control | [7] 86 % of control

CC(NCCN(C)C)C1CC2CCCCN2C1 (centres undefined)
inactive: [8] 104 % of control | [9] 97 % of control

O=C(c1ccccc1)C12CCC3CC(CC(C3)C1)C2
inactive: [10] 100 % of control | [11] 99 % of control | [12] 100 % of control

Fc1cccc(Cl)c1C(Nc1cnccn1)Nc1cnccn1
inactive: [13] 104 % of control | [14] 119 % of control

O=c1c(N=Nc2nc3ccc([N+](=O)[O-])cc3s2)c(O)n(-c2ccccc2)c(=S)n1-c1ccccc1
inactive: dose: 60.0 mg/kg/injection, schedule: Q01DX005 (ip), vehicle: saline 96 % of control | dose: 120.0 mg/kg/injection, schedule: Q01DX005 (ip), vehicle: saline 96 % of control | dose: 240.0 mg/kg/injection, schedule: Q01DX005 (ip), vehicle: saline 92 % of control

COC(=O)C(C(=O)OC)=C(NS(=O)(=O)c1ccc(C)cc1)SC
inactive: dose: 12.5 mg/kg/injection, schedule: Q04DX002 (ip), vehicle: saline with Tween-80 100 % of control | dose: 25.0 mg/kg/injection, schedule: Q04DX002 (ip), vehicle: saline with Tween-80 100 % of control | dose: 50.0 mg/kg/injection, schedule: Q04DX002 (ip), vehicle: saline with Tween-80 109 % of control

O=C(NC1C=Nc2ccccc2NC1=O)c1ccc(Cl)cc1 (centres undefined)
inactive: [13] 91 % of control | [14] 98 % of control | dose: 240.0 mg/kg/injection, schedule: Q01DX005 (ip), vehicle: Klucel (hydroxypropylcellulose) (HPC) 91 % of control

CC(=O)OCc1c(COC(C)=O)c(-c2ccc(Cl)c(Cl)c2)n2c1CCC2
inactive: [11] 122 % of control

COC(c1ccccc1)(c1ccccc1)c1ccc2ccc3ccccc3c2c1
inactive: [1] 91 % of control | [2] 96 % of control | [4] 95 % of control

NC(=O)C1=Cc2cc(Cl)ccc2OC1
inactive: dose: 6.25 mg/kg/injection, schedule: Q01DX009 (ip), vehicle: saline with Tween-80 97 % of control | dose: 12.5 mg/kg/injection, schedule: Q01DX009 (ip), vehicle: saline with Tween-80 102 % of control | dose: 25.0 mg/kg/injection, schedule: Q01DX009 (ip), vehicle: saline with Tween-80 92 % of control | [3] 106 % of control

OCn1nnc2ccccc21
inactive: dose: 25.0 mg/kg/injection, schedule: Q01DX009 (ip), vehicle: Klucel (hydroxypropylcellulose) (HPC) 116 % of control | [10] 102 % of control | [11] 112 % of control | [12] 106 % of control

S=C1SCN(c2ccc3c(c2)OCO3)CN1c1ccc2c(c1)OCO2
inactive: [10] 96 % of control | [11] 100 % of control | [12] 96 % of control

COC(=O)/C=C(/Sc1nc(Cl)c(Cl)nc1N)C(=O)OC (tested in a mixture with another compound)
inactive: dose: 7.5 mg/kg/injection, schedule: Q01DX005 (ip), vehicle: Klucel (hydroxypropylcellulose) (HPC) 103 % of control | dose: 15.0 mg/kg/injection, schedule: Q01DX005 (ip), vehicle: Klucel (hydroxypropylcellulose) (HPC) 113 % of control | dose: 30.0 mg/kg/injection, schedule: Q01DX005 (ip), vehicle: Klucel (hydroxypropylcellulose) (HPC) 113 % of control

CCCCNC(=O)[C@@H]1C[C@H](OP(c2ccccc2)c2ccccc2)CN1P(c1ccccc1)c1ccccc1
inactive: [5] 100 % of control | [6] 100 % of control | [7] 99 % of control

CCOC(=O)COc1ccc(NC(C)=O)cc1
inactive: [8] 103 % of control | [9] 103 % of control | dose: 240.0 mg/kg/injection, schedule: Q01DX005 (ip), vehicle: saline with Tween-80 95 % of control
